Assay results reported in PubChem BioAssay (NCI).
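Method: 48-hour compound exposure of cells in 96-well plates, five concentrations, linear interpolation of endpoints. TGI marks complete inhibition of growth.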

Experiments:
Assay in all cases: NCI tumour cell line growth inhibition, 48 h
[1] = system: SK-OV-3 ovarian
[2] = system: OVCAR-4 ovarian
[3] = system: SR leukemia
[4] = system: SW-620 colon
[5] = system: SF-268 CNS
[6] = system: UACC-62 melanoma
[7] = system: BT-549 breast
[8] = system: A549 NSCLC
[9] = system: ACHN renal
[10] = system: HCC-2998 colon
[11] = system: NCI-H23 lung
[12] = system: MDA-N
[13] = system: SF-295 CNS
[14] = system: T-47D breast
[15] = system: HCT-116 colon
[16] = system: UACC-257 melanoma
[17] = system: NCI/ADR-RES ovarian
[18] = system: KM12 colon
[19] = system: HOP-62 NSCLC
[20] = system: OVCAR-5 ovarian
[21] = system: SK-MEL-5 melanoma
[22] = system: U251 CNS
[23] = system: MDA-MB-231 breast
[24] = system: NCI-H522 lung
[25] = system: SNB-19 CNS
[26] = system: 786-0 renal
[27] = system: NCI-H460 lung
[28] = system: CCRF-CEM leukemia
[29] = system: K-562 leukemia
[30] = system: HL-60(TB) leukemia
[31] = system: SNB-75 CNS
[32] = system: PC-3 prostate
[33] = system: LOX IMVI melanoma
[34] = system: MCF7 breast
[35] = system: HS 578T breast
[36] = system: SN12C renal
[37] = system: NCI-H226 lung
[38] = system: RXF 393 renal
[39] = system: HT29 colon
[40] = system: SK-MEL-2 melanoma
[41] = system: CAKI-1 renal
[42] = system: MOLT-4 leukemia
[43] = system: HCT-15 colon
[44] = system: SF-539 CNS
[45] = system: M14 melanoma
[46] = system: MALME-3M melanoma
[47] = system: UO-31 renal
[48] = system: TK-10 renal
[49] = system: EKVX NSCLC
[50] = system: OVCAR-8 ovarian
[51] = system: COLO 205 colon
[52] = system: DU-145 prostate
[53] = system: IGROV1 ovarian
[54] = system: SK-MEL-28 melanoma
[55] = system: A498 renal
[56] = system: OVCAR-3 ovarian
[57] = system: RPMI-8226 leukemia

`CC1(C)CC(=O)C(Cc2ccccc2)(Cc2ccccc2)C(=O)C1` showed a TGI [1] greater than 100 µM, a TGI [2] greater than 100 µM and a TGI [3] greater than 100 µM. It also gave a TGI [4] greater than 100 µM, a TGI [5] greater than 100 µM and a TGI [6] greater than 100 µM. It also gave a TGI [7] greater than 100 µM, a TGI [8] greater than 100 µM and a TGI [9] greater than 100 µM. It also gave a TGI [10] greater than 100 µM, a TGI [11] greater than 100 µM and a TGI [12] greater than 100 µM. It also gave a TGI [13] greater than 100 µM, a TGI [14] greater than 100 µM and a TGI [15] greater than 100 µM. For the same compound, the TGI [16] was greater than 100 µM, the TGI [17] was greater than 100 µM and the TGI [18] was greater than 100 µM. For the same compound, the TGI [19] was greater than 100 µM, the TGI [20] was greater than 100 µM and the TGI [21] was greater than 100 µM. The TGI [22] was greater than 100 µM, the TGI [23] was greater than 100 µM and the TGI [24] was greater than 100 µM. The TGI [25] was greater than 100 µM, the TGI [26] was greater than 100 µM and the TGI [27] was greater than 100 µM. For the same compound, the TGI [28] was greater than 100 µM, the TGI [29] was greater than 100 µM and the TGI [30] was greater than 100 µM. For the same compound, the TGI [31] was greater than 100 µM, the TGI [32] was greater than 100 µM and the TGI [33] was greater than 100 µM. It also gave a TGI [34] greater than 100 µM, a TGI [35] greater than 100 µM and a TGI [36] greater than 100 µM. For the same compound, the TGI [37] was greater than 100 µM, the TGI [38] was greater than 100 µM and the TGI [39] was greater than 100 µM. The TGI [40] was greater than 100 µM, the TGI [41] was greater than 100 µM and the TGI [42] was greater than 100 µM. For the same compound, the TGI [43] was greater than 100 µM, the TGI [44] was greater than 100 µM and the TGI [45] was greater than 100 µM. The TGI [46] was greater than 100 µM, the TGI [47] was greater than 100 µM and the TGI [48] was greater than 100 µM. For the same compound, the TGI [49] was greater than 100 µM, the TGI [50] was greater than 100 µM and the TGI [51] was greater than 100 µM. The TGI [52] was greater than 100 µM, the TGI [53] was greater than 100 µM and the TGI [54] was greater than 100 µM.
In the case of `COc1ccccc1N1C(=O)C2C3c4ccccc4C(OC(C)=O)(c4ccccc43)C2C1=O` (centres undefined), the TGI [1] is reported as greater than 100 µM, the TGI [2] is reported as greater than 100 µM and the TGI [3] is reported as greater than 100 µM. For the same compound, the TGI [4] was greater than 100 µM, the TGI [5] was greater than 100 µM and the TGI [6] was greater than 100 µM. It also gave a TGI [7] greater than 100 µM, a TGI [8] greater than 100 µM and a TGI [9] greater than 100 µM. For the same compound, the TGI [10] was greater than 100 µM, the TGI [11] was greater than 100 µM and the TGI [12] was greater than 100 µM. It also gave a TGI [13] greater than 100 µM, a TGI [14] greater than 100 µM and a TGI [15] greater than 100 µM. It also gave a TGI [16] greater than 100 µM, a TGI [17] greater than 100 µM and a TGI [18] greater than 100 µM. For the same compound, the TGI [19] was greater than 100 µM, the TGI [20] was greater than 100 µM and the TGI [21] was greater than 100 µM. The TGI [55] was greater than 100 µM, the TGI [22] was greater than 100 µM and the TGI [23] was greater than 100 µM. It also gave a TGI [25] greater than 100 µM, a TGI [26] greater than 100 µM and a TGI [27] greater than 100 µM. For the same compound, the TGI [56] was greater than 100 µM, the TGI [28] was greater than 100 µM and the TGI [29] was greater than 100 µM. It also gave a TGI [30] greater than 100 µM, a TGI [31] of 38.8 µM and a TGI [32] greater than 100 µM. The TGI [33] was greater than 100 µM, the TGI [34] was greater than 100 µM and the TGI [35] was 52.1 µM. The TGI [36] was greater than 100 µM, the TGI [37] was greater than 100 µM and the TGI [38] was greater than 100 µM. The TGI [39] was greater than 100 µM, the TGI [41] was greater than 100 µM and the TGI [42] was greater than 100 µM. The TGI [43] was greater than 100 µM, the TGI [44] was greater than 100 µM and the TGI [45] was greater than 100 µM. The TGI [46] was greater than 100 µM, the TGI [47] was greater than 100 µM and the TGI [48] was greater than 100 µM. The TGI [57] was greater than 100 µM, the TGI [49] was greater than 100 µM and the TGI [50] was greater than 100 µM. The TGI [51] was greater than 100 µM, the TGI [52] was greater than 100 µM and the TGI [53] was greater than 100 µM. It also gave a TGI [54] greater than 100 µM.
